Where two headings read alike, the source gives them in different places. Each block holds one compound with its values, some of them ahead of it.
Experiments:
neointimal formation = conditions: rats, balloon injury model; cited from earlier work
[1] = tested on: congestive heart failure in Dahl salt-sensitive rats; conditions: cited from earlier work
[2] = tested on: spontaneously hypertensive rat, renal hypertensive rat and deoxycortisone acetate salt hypertensive rat models; conditions: cited from earlier work
rat stroke model = conditions: cited from earlier work
[3] = tested on: IL-1 beta-induced coronary stenosis; conditions: porcine model, long term treatment; cited from earlier work
ROCK2 = ROCK2 (Homo sapiens, UniProt O75116); experiment: ROCK assay: phosphorylation of FITC peptide substrate, LABCHIP 3000 mobility shift; assay type: biochemical; conditions: 5 μM ATP, 1.5 μM peptide substrate; read-out: ROCK2 Activity (ROCK IC50 range)
Sequence of ROCK2 (O75116 whole entry, species assumed): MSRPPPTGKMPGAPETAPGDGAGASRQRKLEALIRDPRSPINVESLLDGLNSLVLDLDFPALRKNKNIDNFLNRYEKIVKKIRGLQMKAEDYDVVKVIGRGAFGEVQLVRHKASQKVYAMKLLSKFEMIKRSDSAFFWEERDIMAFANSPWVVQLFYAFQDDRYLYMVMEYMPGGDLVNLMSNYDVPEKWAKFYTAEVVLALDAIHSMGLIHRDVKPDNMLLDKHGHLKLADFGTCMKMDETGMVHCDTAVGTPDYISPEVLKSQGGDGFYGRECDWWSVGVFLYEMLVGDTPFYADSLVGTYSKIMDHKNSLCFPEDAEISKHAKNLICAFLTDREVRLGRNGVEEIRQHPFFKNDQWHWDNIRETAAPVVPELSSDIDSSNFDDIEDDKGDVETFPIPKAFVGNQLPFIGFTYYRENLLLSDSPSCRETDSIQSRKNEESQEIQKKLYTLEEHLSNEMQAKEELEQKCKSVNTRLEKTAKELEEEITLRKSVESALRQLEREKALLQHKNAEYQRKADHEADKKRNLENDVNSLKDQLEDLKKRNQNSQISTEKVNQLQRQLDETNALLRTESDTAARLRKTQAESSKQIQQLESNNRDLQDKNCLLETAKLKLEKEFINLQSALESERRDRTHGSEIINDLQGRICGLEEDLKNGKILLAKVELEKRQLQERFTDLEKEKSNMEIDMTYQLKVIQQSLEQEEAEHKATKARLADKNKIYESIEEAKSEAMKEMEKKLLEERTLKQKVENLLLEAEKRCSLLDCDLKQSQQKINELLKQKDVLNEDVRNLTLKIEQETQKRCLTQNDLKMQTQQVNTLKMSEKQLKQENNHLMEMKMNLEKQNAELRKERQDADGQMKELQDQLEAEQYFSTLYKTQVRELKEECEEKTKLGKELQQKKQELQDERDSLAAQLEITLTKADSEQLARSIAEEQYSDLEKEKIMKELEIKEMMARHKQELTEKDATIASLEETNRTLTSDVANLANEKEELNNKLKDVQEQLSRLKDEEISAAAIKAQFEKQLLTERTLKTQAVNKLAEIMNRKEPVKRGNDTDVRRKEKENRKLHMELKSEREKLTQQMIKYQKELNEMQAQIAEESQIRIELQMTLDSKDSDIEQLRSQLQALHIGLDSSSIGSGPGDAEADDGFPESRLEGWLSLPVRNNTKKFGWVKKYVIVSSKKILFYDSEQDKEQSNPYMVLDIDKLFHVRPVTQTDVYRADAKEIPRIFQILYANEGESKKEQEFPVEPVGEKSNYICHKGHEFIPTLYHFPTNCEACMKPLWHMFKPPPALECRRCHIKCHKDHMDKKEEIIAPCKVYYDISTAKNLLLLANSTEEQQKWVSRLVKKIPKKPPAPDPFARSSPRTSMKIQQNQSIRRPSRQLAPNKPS
In short: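 IC50 values come from curve-fitting percent kinase inhibition across a compound dilution series. The reaction is started with Rho kinase variant in HEPES pH 7.5 buffer with MgCl2, Brij-35 and DTT, with 5 μM ATP, 1.5 μM FITC-labelled peptide and under 2% DMSO. After EDTA quench, product and substrate are separated by microfluidic mobility shift.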

SMILES: C[C@@H](N)[C@H]1CC[C@H](C(=O)Nc2ccncc2)CC1 [Example Y-27632]
neointimal formation (neointimal formation): inhibited neointimal formation
ventricular hypertrophy, fibrosis and function [1]: improve ventricular hypertrophy, fibrosis and function
blood pressure ([2]; control rats): only a minor effect on blood pressure
blood pressure ([2]; three rat models of hypertension): significantly decrease blood pressure

SMILES: O=S(=O)(c1cccc2cnccc12)N1CCCNCC1 [fasudil]
infarct size and neurologic deficit (rat stroke model): reduce both the infarct size and neurologic deficit
coronary constrictive remodeling [3]: promote a regression of coronary constrictive remodeling
coronary stenosis [3]: progressively reduce coronary stenosis

SMILES: [H][C@]1(c2n[nH]c(=O)c3ccccc32)C[C@]2(C[C@@H](N(C)C(=O)c3nn(C)c4ccccc34)C2)C1 (stereo partly drawn) [Example 266, N,1-dimethyl-N-((aR)-6-(4-oxo-3,4-dihydrophthalazin-1-yl)spiro[3.3]heptan-2-yl)-1H-indazole-3-carboxamide]
IC50 (ROCK2): 100 to 2100 nM

Continued, values first:

IC50 (ROCK2): 0.2 to 2 nM
SMILES: [H][C@]1(c2n[nH]c(=O)c3ccccc32)C[C@]2(C[C@@H](NC(=O)c3cnc4cc(C(C)=O)ccn34)C2)C1 (stereo partly drawn) [Example 426, 7-acetyl-N-((aR)-6-(4-oxo-3,4-dihydrophthalazin-1-yl)spiro[3.3]heptan-2-yl)imidazo[1,2-a]pyridine-3-carboxamide]

IC50 (ROCK2): 15.1 to 100 nM
SMILES: O=C(NC1CC2(C1)CC(c1n[nH]c(=O)c3ccccc13)C2)c1ccnn1CC1CC1 [Example 103, 1-(cyclopropylmethyl)-N-((aR)-6-(4-oxo-3,4-dihydrophthalazin-1-yl)spiro[3.3]heptan-2-yl)-1H-pyrazole-5-carboxamide]
